Consider 17 compounds from patent publication US8110585B2, “Bicyclic compound and pharmaceutical use thereof” (Takeda Pharmaceutical Company Limited, priority 2007, dated 2012).

Broadly, the IC50 is the concentration that inhibits the measured activity by half. In general, melting point refers to the temperature, or range, at which the solid turns liquid.

The target in series [1] is T1, human melatonin 1 receptors (human MT1 receptors) (Homo sapiens, UniProt P48039).
T1 construct: expressed in transfected cells; membrane fraction
T1 sequence (P48039 whole entry): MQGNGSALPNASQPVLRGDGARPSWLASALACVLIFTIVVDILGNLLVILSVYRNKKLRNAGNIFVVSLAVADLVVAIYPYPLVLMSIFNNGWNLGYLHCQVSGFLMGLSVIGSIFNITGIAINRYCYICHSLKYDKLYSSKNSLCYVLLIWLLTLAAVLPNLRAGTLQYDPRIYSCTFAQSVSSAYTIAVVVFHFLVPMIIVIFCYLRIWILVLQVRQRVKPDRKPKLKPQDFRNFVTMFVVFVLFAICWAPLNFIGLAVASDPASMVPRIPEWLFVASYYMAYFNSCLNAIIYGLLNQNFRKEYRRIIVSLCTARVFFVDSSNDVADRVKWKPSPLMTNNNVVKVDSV
Briefly: Melatonin receptor binding inhibitory test, 2-[125I] Iodomelatonin, MT1. The conditions noted are these: membrane fraction of CHO-hMelR7 cells, 25° C. for 2.5 hr, read-out: binding inhibitory activity as IC50 value for MT1. As for the experimental part: (§1) Melatonin Receptor Binding Inhibitory Test
(1) Preparation of CHO-hMelR7 Cells expressing Human Melatonin 1 Receptors
A cDNA fragment (SEQ ID NO: 1) encoding full-length of human melatonin 1 receptors (human MT1 receptors) was incorporated into expression vector pAKKO-111H (former name pAKKO1.11H; Biochim Biophys Acta. Vol. 1219(2), pp. 251-259, 1994) to give plasmid pAKKO-hMelR7 for animal cell expression. CHO/dhfr-cells (ATCC, #CRL-9096) were plated at a concentration of 0.3×10^6 cells/dish in a 6 cm culture dish (Becton Dickinson), and cultured under the conditions of 37° C., 5% CO2 for 48 hr. The cells were transfected with pAKKO-hMelR7 plasmid DNA (5 μg) using Cellphect Transfection Kit (Amersham, #27-9268-01). The transfected cells were cultured in Dulbecco's modified Eagle medium (DMEM) (Sigma, #D6046) containing 10% dialyzed FBS (Biowest, #S180D), 1× Non-Essential Amino Acid (Invitrogen, #11140-050) and 50 μg/mL Gentamycin (Invitrogen, #15750-060), and the cell line that stably expressed the plasmid gene was selected. By a receptor binding assay using 2-[^125I] Iodomelatonin, CHO-hMelR7 cell line showing specific binding of 2-[^125I] Iodomelatonin was selected from the obtained clones.
(§2) (3) Preparation of Cellular Membrane Fraction of CHO Cell (CHO-hMelR7 and CHO-hMT2) Stably Expressing Human MT1 and MT2 Receptors
(§3) CHO-hMelR7 and CHO-hMT2 cells were plated using Cellfactory (Nunc, #170009) under the conditions of 1×10^8 cells/2000 mL/flask. The cells were grown to confluent, and recovered by the following method. As the medium for CHO-hMelR7 and CHO-hMT2, MEM a containing 10% FBS and penicillin/streptomycin was used. […]
(§4) The medium was discarded, cells were washed twice with 200 mL of EDTA/PBS(−), 200 mL of EDTA/PBS(−) was further added, and the cells were stood still at room temperature for 20 min until they were released. The cells were recovered in four 50 mL tubes (Becton Dickinson, #352070), and centrifuged at 1,500 rpm for 10 min at 4° C. using a low speed cooling centrifuge (Hitachi, CF7D2). The supernatant was discarded, the pellets in the four tubes were suspended in 10 mL of PBS(−), and combined in one tube (Becton Dickinson, #352070). The mixture was further centrifuged at 1,500 rpm for 10 min at 4° C., and the obtained pellets were suspended in 20 mL of ice-cooled homogenizing buffer [10 mM NaHCO3, 5 mM EDTA, Protease inhibitor Complete (Roche), pH 7.4]. The cell suspension was homogenized 3 times using a polytron homogenizer at 20,000 rpm for 30 sec. The obtained homogenate was centrifuged (2,000 rpm, 10 min, 4° C.) using a low speed cooling centrifuge. The supernatant was recovered in an ultracentrifugation tube and ultracentrifuged (40,000 rpm, 60 min, 4° C.) using an ultracentrifuge (Beckman, L-90K). To the obtained pellets was added a suspending buffer [50 mM Tris-HCl, 1 mM EDTA, Protease inhibitor Complete (Roche), pH 7.4], and the pellets were suspended by pipetting. The protein concentration of this suspension was measured, diluted to 2 mg/mL to give cellular membrane fractions of CHO-hMelR7 and CHO-hMT2 cells. The membrane fractions were dispensed to 1.5 mL tubes (Eppendorf, #0030120.086) by 100 μL, preserved in a freezer (−80° C.) and used for a binding assay. Protein was quantified using BCA protein assay kit (Pierce) with BSA as the standard.
(§5) (4) Preparation of Membrane Fraction Suspension
(§6) Immediately before use, the membrane fractions of CHO-hMelR7 and CHO-hMT2 cells of the above-mentioned (3) were diluted 20-fold with assay buffer (50 mM Tris-HCl, pH 7.7).
(§7) (5) Preparation of 2-[^125I] Iodomelatonin Solution
(§8) 2-[^125I] Iodomelatonin (#NEX236, PerkinElmer) was diluted with the assay buffer to 400 pM for MT1 and 1 nM for MT2.
The assay buffer (80 μL) of the above-mentioned (4) was added to each well of a 96-well plate (type 3363, Corning). Then, a test compound (compound solution diluted with DMSO to 200-fold of the final measurement concentration) was added by 2 μL. […]

In series [2] the target is T2, human melatonin 2 receptors (human MT2 receptors) (Homo sapiens, UniProt P49286).
T2 construct: expressed in transfected cells; membrane fraction
T2 sequence (P49286 1-362): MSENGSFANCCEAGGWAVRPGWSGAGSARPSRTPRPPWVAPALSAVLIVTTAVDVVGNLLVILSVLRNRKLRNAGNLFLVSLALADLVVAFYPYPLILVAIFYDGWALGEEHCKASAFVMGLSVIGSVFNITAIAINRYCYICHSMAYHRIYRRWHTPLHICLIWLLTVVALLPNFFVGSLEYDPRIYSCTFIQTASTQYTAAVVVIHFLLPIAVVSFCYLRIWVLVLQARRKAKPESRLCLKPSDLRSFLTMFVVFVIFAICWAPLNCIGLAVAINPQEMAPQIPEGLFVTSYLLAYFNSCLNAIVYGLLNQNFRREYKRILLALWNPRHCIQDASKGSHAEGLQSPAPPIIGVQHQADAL
Briefly: Melatonin receptor binding inhibitory test, 2-[125I] Iodomelatonin, MT2. The conditions noted are these: membrane fraction of CHO-hMT2 cells, 25° C. for 2.5 hr, read-out: binding inhibitory activity as IC50 value for MT2. How it is done: as §1
(2) Preparation of CHO-hMT2 Cells Expressing Human Melatonin 2 Receptors
A cDNA fragment (SEQ ID NO: 2) encoding full-length of human melatonin 2 receptors (human MT2 receptors) was incorporated into expression vector pCMV-Script (Stratagene, #212220) to give the plasmid that was pCMV-human MT2 receptors expression vector for animal cell expression. CHO-K1 cells (ATCC, #CCL-61) were plated at the concentration of 1.5×10^5 cells/cm^2 in a 6 well plate (ASAHI TECHNO GLASS), and cultured under the conditions of 37° C., 5% CO2 for 24 hr. For gene transfection, solution obtained by blending pCMV-human MT2 receptors expression vector (1.9 μg), Lipofectamine Transfection Reagent (Invitrogen, #18324-012) (11.3 μL) and Minimum Essential Medium Eagle (MEM) medium (Sigma, M8042) (93.8 μL), and reacting at room temperature for 20 min was added to the cells per one well. The transfected cells were cultured in MEM medium containing 10% FBS (Life Technology) and 300 μg/mL Geneticin (GIBCO, #10131), and the cell line that stably expressed the plasmid gene was selected. By a receptor binding assay using 2-[^125I] Iodomelatonin, CHO-hMT2 cell line showing specific binding of 2-[^125I] Iodomelatonin was selected from the obtained clones.
as §2, §3, §4, §5, §6, §7, §8
The assay buffer (80 μL) of the above-mentioned (4) was added to each well of a 96-well plate (type 3363, Corning). […]

With `CC(=O)NCC1CC1c1c(Cl)ccc2nn(C)cc12` (stereo not drawn) [Example 27, N-{[2-(5-chloro-2-methyl-2H-indazol-4-yl)cyclopropyl]methyl}acetamide], the melting point was 149 to 150 °C. Besides, the IC50 in series [1] was at most 100 nM. Besides, the half-maximal inhibitory concentration (IC50) in series [2] was at most 100 nM.

For `CCC(=O)NCC1CC1c1c(Cl)ccc2nn(C)cc12` (stereo not drawn) [Example 28, N-{[2-(5-chloro-2-methyl-2H-indazol-4-yl)cyclopropyl]methyl}propanamide], the melting point was in the range of 152 to 153 °C. Moreover, in series [1], the IC50 is at most 100 nM. The IC50 in series [2] was at most 100 nM.

In turn, `CC(=O)NCC1CC1c1c(Br)ccc2nn(C)cc12` (stereo not drawn) [Example 29, N-{[2-(5-bromo-2-methyl-2H-indazol-4-yl)cyclopropyl]methyl}acetamide] registered a melting point of 135 to 137 °C. Besides, the concentration for half-maximal inhibition (IC50) in series [1] was at most 100 nM. Besides, the half-maximal inhibitory concentration (IC50) in series [2] is at most 100 nM.

On to `CCC(=O)NCC1CC1c1c(Br)ccc2nn(C)cc12` (stereo not drawn) [Example 30, N-{[2-(5-bromo-2-methyl-2H-indazol-4-yl)cyclopropyl]methyl}propanamide], for which the melting point lay within 119 to 121 °C. For the same compound, the half-maximal inhibitory concentration (IC50) in series [1] is at most 100 nM. In addition, the IC50 in series [2] was at most 100 nM.

`CC(=O)NCC1CC1c1c(C)ccc2nn(C)cc12` (stereo not drawn) [Example 31, N-{[2-(2,5-dimethyl-2H-indazol-4-yl)cyclopropyl]methyl}acetamide] yielded a melting point of 139 to 140 °C. For the same compound, the concentration for half-maximal inhibition (IC50) in series [1] is at most 100 nM. The IC50 in series [2] is at most 100 nM.

In turn, `CC(=O)NCC1CC1c1c(C2CC2)ccc2nn(C)cc12` (stereo not drawn) [Example 33, N-{[2-(5-cyclopropyl-2-methyl-2H-indazol-4-yl)cyclopropyl]methyl}acetamide] displayed a melting point of 102 to 103 °C. Besides, the 50% inhibitory concentration (IC50) in series [1] was at most 100 nM. In series [2], the IC50 is at most 100 nM.

In turn, `CC(=O)NCC1CC1c1c(-c2ccccc2)ccc2nn(C)cc12` (stereo not drawn) [Example 34, N-{[2-(2-methyl-5-phenyl-2H-indazol-4-yl)cyclopropyl]methyl}acetamide] showed a melting point of 156 to 158 °C. For the same compound, in series [1], the IC50 is at most 100 nM. For the same compound, the IC50 in series [2] is at most 100 nM.

Compound `CC(=O)NCC1CC1c1c(-c2cccnc2)ccc2nn(C)cc12` (stereo not drawn) [Example 35, N-{[2-(2-methyl-5-pyridin-3-yl-2H-indazol-4-yl)cyclopropyl]methyl}acetamide] came in with a melting point of 136 to 138 °C. For the same compound, the IC50 in series [1] is at most 100 nM. In addition, in series [2], the IC50 was at most 100 nM.

As for `CC(=O)NCC1CC1c1c(C#N)ccc2nn(C)cc12` (stereo not drawn) [Example 36, N-{[2-(5-cyano-2-methyl-2H-indazol-4-yl)cyclopropyl]methyl}acetamide], the melting point was in the range of 189 to 192 °C. Besides, the 50% inhibitory concentration (IC50) in series [1] is at most 100 nM. Further, the IC50 in series [2] is at most 100 nM.

Turning to `COc1ccc2nn(C)cc2c1C1CC1CNC(C)=O` (stereo not drawn) [Example 37, N-{[2-(5-methoxy-2-methyl-2H-indazol-4-yl)cyclopropyl]methyl}acetamide], the melting point lay within 104 to 105 °C. Moreover, the IC50 in series [1] is at most 100 nM. The 50% inhibitory concentration (IC50) in series [2] is at most 100 nM.

In turn, `CC(=O)NCC1CC1c1ccc(F)c2nn(C)cc12` (stereo not drawn) [Example 38, N-{[2-(7-fluoro-2-methyl-2H-indazol-4-yl)cyclopropyl]methyl}acetamide] had a melting point of 147 to 148 °C. For the same compound, the IC50 in series [1] is at most 100 nM. Moreover, in series [2], the IC50 is at most 100 nM.

Take `CC(=O)NCC1CC1c1ccc(Cl)c2nn(C)cc12` (stereo not drawn) [Example 39, N-{[2-(7-chloro-2-methyl-2H-indazol-4-yl)cyclopropyl]methyl}acetamide]: the melting point lay in the range of 153 to 155 °C. The IC50 in series [1] is at most 100 nM. In series [2], the concentration for half-maximal inhibition (IC50) was at most 100 nM.

On to `CC(=O)NC[C@H]1C[C@@H]1c1cccn2nc(C)cc12` [Example 43, N-{[(1S,2S)-2-(2-methylpyrazolo[1,5-a]pyridin-4-yl)cyclopropyl]methyl}acetamide], for which the melting point is 69 to 70 °C. The half-inhibitory concentration (IC50) in series [1] is at most 100 nM. In series [2], the IC50 is at most 100 nM.

For `CC(=O)NC[C@@H]1C[C@H]1c1cccn2nc(C)cc12` [Example 44, N-{[(1R,2R)-2-(2-methylpyrazolo[1,5-a]pyridin-4-yl)cyclopropyl]methyl}acetamide], the melting point lay within 100 to 101 °C. In addition, the IC50 in series [1] was at most 100 nM. For the same compound, the IC50 in series [2] was at most 100 nM.

Regarding `Cc1cc2c([C@H]3C[C@@H]3CNC(=O)C3CC3)cccn2n1` [Example 48, N-{[(1S,2S)-2-(2-methylpyrazolo[1,5-a]pyridin-4-yl)cyclopropyl]methyl}cyclopropanecarboxamide], the melting point is 124 to 128 °C. For the same compound, the 50% inhibitory concentration (IC50) in series [1] is at most 100 nM. In addition, in series [2], the half-inhibitory concentration (IC50) was at most 100 nM.

`Cc1cc2c([C@@H]3C[C@H]3CNC(=O)C3CC3)cccn2n1` [Example 49, N-{[(1R,2R)-2-(2-methylpyrazolo[1,5-a]pyridin-4-yl)cyclopropyl]methyl}cyclopropanecarboxamide] yielded a melting point of 127 to 129 °C. Further, the half-maximal inhibitory concentration (IC50) in series [1] was at most 100 nM. For the same compound, in series [2], the half-maximal inhibitory concentration (IC50) was at most 100 nM.

For `CC(=O)NCC1CC1c1cccc2nc(C)cn12` (stereo not drawn) [Example 52, N-{[2-(2-methylimidazo[1,2-a]pyridin-5-yl)cyclopropyl]methyl}acetamide], the melting point is 170 to 171 °C. Besides, the IC50 in series [1] was at most 100 nM. Moreover, the half-inhibitory concentration (IC50) in series [2] is at most 100 nM.
